Source: patent US8143374B2, “Polypeptide derivatives of parathyroid hormone (PTH)” (The General Hospital Corporation, priority 2006, dated 2012)
Where a SMILES comes first, the peptide text is derived from it. Where no end group is shown, it is not given here. [ ]: non-standard residue; d: D form. Orn = NCCC[C@H](N)C(=O)O

Legend:
ROS 17/2.8 cells = biological target: T1, ROS 17/2.8 cells (Rattus norvegicus, UniProt P25961); conditions: position-20 substitutions in PTH(1-31)NH2; cited from earlier work
T1 construct: ROS 17/2.8 cells are rat osteosarcoma cells and express the endogenous PTHR; host or cells: ROS 17/2.8 cells
T1 sequence (P25961 27-591): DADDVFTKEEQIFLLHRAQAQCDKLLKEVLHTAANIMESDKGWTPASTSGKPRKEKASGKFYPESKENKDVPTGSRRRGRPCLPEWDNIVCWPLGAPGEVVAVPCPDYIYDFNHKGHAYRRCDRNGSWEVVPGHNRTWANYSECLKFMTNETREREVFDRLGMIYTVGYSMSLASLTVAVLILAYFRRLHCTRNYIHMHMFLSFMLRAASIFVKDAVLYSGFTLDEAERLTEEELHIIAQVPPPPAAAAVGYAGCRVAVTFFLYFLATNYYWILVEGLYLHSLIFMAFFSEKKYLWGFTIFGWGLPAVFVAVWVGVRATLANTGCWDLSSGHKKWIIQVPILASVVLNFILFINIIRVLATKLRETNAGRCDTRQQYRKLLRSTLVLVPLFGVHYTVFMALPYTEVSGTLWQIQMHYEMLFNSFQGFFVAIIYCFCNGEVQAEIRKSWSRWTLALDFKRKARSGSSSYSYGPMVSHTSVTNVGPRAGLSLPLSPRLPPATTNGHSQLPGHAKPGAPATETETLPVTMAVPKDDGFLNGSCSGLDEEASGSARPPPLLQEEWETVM

wild-type human PTHR = biological target: T2, wild-type human PTHR (Homo sapiens, UniProt Q03431); test: Competition binding in intact HKRK-B7 cells with 125I-PTH(1-34) tracer; conditions: for IC50: hPTH(1-31)NH2 analogs, intact HKRK-B7 cells, 125I-[Nle8,21,Tyr34]ratPTH(1-34)NH2 tracer, read-out: PTHR-WT (HKRK-B7 cells) IC50; for reduction (alteration) of apparent binding affinity for the intact PTHR relative to parent peptide: versus the respective parent peptide; for enhancement in apparent PTHR-binding affinity relative to parent peptide: versus PTH(1-31)NH2
T2 construct: expressed in transfected cells
T2 sequence (Q03431 27-593): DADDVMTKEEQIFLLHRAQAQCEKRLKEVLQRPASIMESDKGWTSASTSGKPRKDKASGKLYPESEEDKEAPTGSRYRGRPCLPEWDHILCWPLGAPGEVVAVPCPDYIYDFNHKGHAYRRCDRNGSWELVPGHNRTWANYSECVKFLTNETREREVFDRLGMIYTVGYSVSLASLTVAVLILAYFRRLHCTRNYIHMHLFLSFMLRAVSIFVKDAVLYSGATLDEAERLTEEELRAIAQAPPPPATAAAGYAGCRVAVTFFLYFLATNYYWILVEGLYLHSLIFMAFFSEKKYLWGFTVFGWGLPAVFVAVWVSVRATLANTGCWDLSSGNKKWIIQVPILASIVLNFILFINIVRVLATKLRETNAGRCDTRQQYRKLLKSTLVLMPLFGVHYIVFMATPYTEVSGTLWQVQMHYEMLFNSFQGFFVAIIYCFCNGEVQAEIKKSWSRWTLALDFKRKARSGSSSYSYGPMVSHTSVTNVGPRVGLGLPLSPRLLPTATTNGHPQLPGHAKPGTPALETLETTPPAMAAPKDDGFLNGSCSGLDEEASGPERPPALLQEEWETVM
Procedure: Cell Culture—Cells were cultured at 37° C. in a humidified atmosphere containing 5% CO2 in Dulbecco's modified Eagle's medium (DMEM), supplemented with 10% fetal bovine serum (HyClone, Logan Utah), 100 units/ml penicillin G, and 100 ug/ml streptomycin penicillin G/streptomycin (Invitrogen Corp. Carlsbad, Calif.). For binding and cAMP studies performed with the intact PTHR, the HKRK-B7 and ROS 17/2.8 cell lines were used. HKRK-B7 cells are derived from the porcine kidney cell line LLC-PK1 and express, via stable DNA transfection, the wild-type human PTHR at an approximate surface density of 950,000 PTH-binding sites per cell. ROS 17/2.8 cells are rat osteosarcoma cells and express the endogenous PTHR at an approximate surface density of 80,000 PTH-binding sites per cell. The cells were plated and assayed in 24-well plates.
Receptor binding—Binding to the wild-type human PTHR in intact HKRK-B7 cells and ROS 17/2.8 cells was assessed using ^125I-PTH(1-34) as a tracer radioligand, as described (Shimizu, M., (2001) Endocrinology 142:3068-3074). In brief, the cells in 24-well plates (about 500,000 cells per well) were incubated in binding buffer containing radioligand (about 100,000 cpm per well) with or without unlabeled peptide ligand (3×10^−9 to 1×10^−5 M) for four hours at 15° C. The binding mixture was then removed by aspiration, the cells were rinsed three times with binding buffer, lysed in 1 M NaOH, and the entire lysate was counted for gamma-irradiation in a gamma counter. Binding to PTHR-delNt in COS-7 cell membranes was assessed in 96-well, vacuum filtration plates (Multiscreen-Durapore HV, […] membranes, Millipore Corp., Millford, Mass.) using ^125I-[Aib^1,3,M]PTH(1-15)NH2 as a tracer radioligand, as described (Dean, T., (2006) Mol Endocrinol 20:931-942). In brief, cell membranes (20 μg/well) were incubated in membrane binding buffer containing radioligand (30,000 cpm/well) with or without unlabeled peptide ligand (3×10^−9 to 1×10^−5 M) for 90 minutes at 21° C. The plates were then subject to rapid vacuum filtration, the filters were washed once with buffer, detached from the plate and counted for gamma-irradiation in a gamma counter. Non-specific binding was defined as the binding observed in the presence of 1×10^−6 M PTH(1-31)NH2 for HKRK-B7 and ROS 17/2.8 cells, and 1×10^−6 M [Aib^1,3,M]PTH(1-15)NH2 for PTHR-delNt. Specifically bound radioactivity was calculated as a percentage of the radioactivity specifically bound in the absence of competing ligand.
Data and statistical calculations—Data were processed for curve fitting and derivation of IC50 and EC50 values using least-squares, nonlinear regression analysis and the four parameter logistic equation: […], where y, ymin and ymax are the observed, minimum and maximum response values, respectively; x is ligand concentration, and n is the slope factor. In cases where incomplete inhibition of binding occurred: i.e. with certain PTH(1-31) analogs binding to PTHR-delNt, the curve fits and IC50 values were derived by extrapolating the data to the maximum inhibition attained by [Aib^1,3,M]PTH(1-15)NH2. Paired data sets were statistically compared using a two-tailed Student's t-test, assuming unequal variances for the two sets.

[1] = Circular dichroism spectroscopy, helical residues per peptide chain; assay type: physicochemical; conditions: calculated from [θ]222
Method in brief: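 Helical residue count per peptide chain derived from 222 nm mean residue ellipticity via −[θ]222×30/28,000. Spectra taken at 20 °C as four-scan averages, with concentrations verified by absorbance at 280 nm (single tryptophan, 5700 M^−1).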

[2] = [Ala1,Arg19]hPTH(1-31)NH2 analogs

Compound	IC50 (wild-type human PTHR)	CD helical residues ([1]; hPTH(1-31)NH2 analogs)	reduction (alteration) of apparent binding affinity for the intact PTHR relative to parent peptide (wild-type human PTHR; HKRK-B7 cells)	other results
SVSEIQLMHNLGKHLNSMEKVEWLRKKLQDV-NH2 [Arg^20→Lys]	> 10000 nM	8	–	reduction of cAMP-stimulating potency (ROS 17/2.8 cells): abolished activity altogether; detectable binding to the intact PTHR (in words) (wild-type human PTHR; HKRK-B7 cells): complete loss of detectable binding affinity
SVSEIQLMHNLGKHLNSMARVEWLRKKLQDV-NH2 [Glu^19→Ala]	49 ± 11 nM	9	–	enhancement in apparent PTHR-binding affinity relative to parent peptide (wild-type human PTHR; HKRK-B7 cells): ≦two-fold
SVSEIQLMHNLGKHLNSMERVEWLRKKLADV-NH2 [Gln^29→Ala]	–	9	–	enhancement in apparent PTHR-binding affinity relative to parent peptide (wild-type human PTHR; HKRK-B7 cells): ≦two-fold
CC[C@H](C)[C@H](NC(=O)[C@H](CCC(=O)O)NC(=O)[C@H](CO)NC(=O)[C@@H](NC(=O)[C@@H](N)CO)C(C)C)C(=O)N[C@@H](CCC(N)=O)C(=O)N[C@@H](CC(C)C)C(=O)N[C@@H](CCSC)C(=O)N[C@@H](Cc1c[nH]cn1)C(=O)N[C@@H](CC(N)=O)C(=O)N[C@@H](CC(C)C)C(=O)NCC(=O)N[C@@H](CCCCN)C(=O)N[C@@H](Cc1c[nH]cn1)C(=O)N[C@@H](CC(C)C)C(=O)N[C@@H](CC(N)=O)C(=O)N[C@@H](CO)C(=O)N[C@@H](CCSC)C(=O)N[C@@H](CCC(=O)O)C(=O)N[C@@H](CCCN)C(=O)N[C@H](C(=O)N[C@@H](CCC(=O)O)C(=O)N[C@@H](Cc1c[nH]c2ccccc12)C(=O)N[C@@H](CC(C)C)C(=O)N[C@@H](CCCNC(=N)N)C(=O)N[C@@H](CCCCN)C(=O)N[C@@H](CCCCN)C(=O)N[C@@H](CC(C)C)C(=O)N[C@@H](CCC(N)=O)C(=O)N[C@@H](CC(=O)O)C(=O)N[C@H](C(N)=O)C(C)C)C(C)C [Arg^20→Orn] (H-SVSEIQLMHNLGKHLNSME[Orn]VEWLRKKLQDV-NH2; N-terminus assumed)	> 10000 nM	6	–	–
SVSEIQLMHNLGKHLNSMERVAWLRKKLQDV-NH2 [Glu^22→Ala]	–	9	–	enhancement in apparent PTHR-binding affinity relative to parent peptide (wild-type human PTHR; HKRK-B7 cells): ≦two-fold

Continued, in another order:

IC50 (wild-type human PTHR)	CD helical residues ([1]; hPTH(1-31)NH2 analogs)	reduction (alteration) of apparent binding affinity for the intact PTHR relative to parent peptide (wild-type human PTHR; HKRK-B7 cells)	Compound	other results
–	7	19 fold	SVSEIQLMHNLGKHLNSMERVEALRKKLQDV-NH2 [Trp^23→Ala]	–
–	–	two- to five-fold reductions	AVSEIQLMHNLGKHLNSMRRVEWLREKLQDV-NH2 [Lys^26→Glu]	CD helical residues [1, 2]: 6
–	9	three- to four-fold	SVSEIQLMHNLGKHLNSMERVEWLRKKLQDA-NH2 [Val^31→Ala]	–
–	10	three- to four-fold	SVSEIQLMHNLGKHLNSMERAEWLRKKLQDV-NH2 [Val^21→Ala]	–
–	8	three- to four-fold	SVSEIQLMHNLGKHLNSMERVEWLRKKAQDV-NH2 [Leu^28→Ala]	–
–	7	12 fold	SVSEIQLMHNLGKHLNSMERVEWARKKLQDV-NH2 [Leu^24→Ala]	–
125 ± 8 nM	7	–	SVSEIQLMHNLGKHLNSMERVEWLRAKLQDV-NH2 [Lys^26→Ala]	–
–	–	two- to five-fold reductions	AVSEIQLMHNLGKHLNSMRRVEWLRKELQDV-NH2 [Lys^27→Glu]	CD helical residues [1, 2]: 5
